Results: patent publication US20220144839A1, “INDOLE AHR INHIBITORS AND USES THEREOF” (Ikena Oncology, Inc., priority 2018, published 2022)

Molecular target: T1, AHR (UniProt P35869)
T1 sequence (P35869 1-848): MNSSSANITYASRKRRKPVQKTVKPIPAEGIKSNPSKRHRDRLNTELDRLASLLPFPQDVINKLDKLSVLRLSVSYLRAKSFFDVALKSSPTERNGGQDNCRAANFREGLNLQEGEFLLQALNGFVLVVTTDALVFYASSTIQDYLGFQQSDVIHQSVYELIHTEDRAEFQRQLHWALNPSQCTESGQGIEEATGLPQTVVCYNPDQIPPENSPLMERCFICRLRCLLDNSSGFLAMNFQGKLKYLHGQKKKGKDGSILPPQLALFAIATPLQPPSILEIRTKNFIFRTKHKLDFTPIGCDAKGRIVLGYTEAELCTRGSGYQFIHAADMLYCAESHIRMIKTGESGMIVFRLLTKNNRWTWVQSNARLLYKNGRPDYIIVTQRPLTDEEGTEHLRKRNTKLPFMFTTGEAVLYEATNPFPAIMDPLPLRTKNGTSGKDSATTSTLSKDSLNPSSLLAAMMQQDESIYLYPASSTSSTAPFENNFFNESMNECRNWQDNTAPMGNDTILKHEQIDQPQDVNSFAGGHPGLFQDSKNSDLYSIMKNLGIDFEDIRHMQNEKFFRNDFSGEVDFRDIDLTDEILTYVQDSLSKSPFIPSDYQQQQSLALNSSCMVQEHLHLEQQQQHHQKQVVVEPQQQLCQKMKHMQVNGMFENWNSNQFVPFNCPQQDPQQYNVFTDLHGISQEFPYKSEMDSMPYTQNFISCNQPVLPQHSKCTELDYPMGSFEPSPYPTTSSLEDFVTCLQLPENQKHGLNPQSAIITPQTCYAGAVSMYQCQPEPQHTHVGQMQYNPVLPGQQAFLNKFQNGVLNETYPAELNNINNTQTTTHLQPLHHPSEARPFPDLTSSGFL
Test: DRE-Luciferase Reporter Assay (Alternate Method), Example 1B
Format: cell-based
Conditions: concentration which inhibits half of the luciferase activity induced by AHR activating ligand; DRE-luciferase reporter cell line
Procedure: AHR binds to Dioxin Responsive Elements (DRE) upstream of genes that it activates. One measure of AHR activity is activation of a reporter gene, such as luciferase, downstream of one or multiple DRE elements. Luciferase activity will reflect activation and inhibition of AHR in the cells expressing his reporter.
Murine Hepa1-6 or Hepa-1c1c7 or other murine cell line with a DRE-luciferase reporter either stably or transiently transfected were plated in media in plates (96-well, 384-well or other plates) and incubated overnight at 37° C. in a C02 incubator or compound and agonist were added at the time of plating. Likewise, human HepG2 or other human cell line with a DRE-luciferase reporter either stably or transiently transfected were plated in media in plates (96-well, 384-well or other plates) and incubated overnight at 37° C. in a C02 incubator or compound and agonist were added at the time of plating.
At the time that cells are plated or following incubation overnight, an AHR activating ligand, such as TCDD, kynurenine, ITE (2-(1H-indole-3-ylcarbonyl)-4-thiazolecarboxylic methyl ester), VAF347, BNF (beta-naphthoflavone), FICZ (6-formylindolo(3,2-b) carbazole or other AHR ligands, was added with or without AHR antagonist.
Cells were incubated for 4, 15 or 24 hours or another time point and then lysed for determination of luciferase activity as a read-out of the AHR activation or inhibition. Luciferase was measured with a commercial kit such as the Promega Luciferase kit or any kit or reagents that provide the luciferin substrate for measuring luciferase activity. The level of luciferase with only activating ligand added was the maximum signal while the luciferase with no ligand was the minimum signal. IC50 values were determined as the concentration which inhibits half of the luciferase activity.

Row | IC50 [nM] | SMILES
1 | 500 to 1000 | C[C@@H](NC(=O)N1CCN(C)CC1)c1cnn2c(N[C@@H]3CCc4[nH]c5ccccc5c4C3)nc(-c3cncc(F)c3)nc12 [Compound I-61b, N-[(1R)-1-[2-(5-Fluoro-3-pyridyl)-4-[[(3R)-2,3,4,9-tetrahydro-1H-carbazol-3-yl]amino]pyrazolo[1,5-a][1,3,5]triazin-8-yl]ethyl]-4-methyl-piperazine-1-carboxamide]
2 | > 1500 | CC(C)c1cnn2c(N[C@H]3Cc4[nH]cnc4NC3=O)nc(-c3cncc(F)c3)nc12 [Compound I-62a, (6S)-6-[[2-(5-Fluoro-3-pyridyl)-8-isopropyl-pyrazolo[1,5-a][1,3,5]triazin-4-yl]amino]-1,4,6,7-tetrahydroimidazo[4,5-b]pyridin-5-one]
3 | > 1500 | CC(C)c1cnn2c(NCCCCO)nc(-c3cnsc3)nc12 [Compound I-54, 4-[(8-Isopropyl-2-isothiazol-4-yl-pyrazolo[1,5-a][1,3,5]triazin-4-yl)amino]butan-1-ol]
4 | > 1500 | CC(C)c1cnn2c(N[C@H]3CCc4c(ccnc4N)C3)nc(-c3cncc(F)c3)nc12 [Compound I-63b, (6S)—N6-[2-(5-fluoro-3-pyridyl)-8-isopropyl-pyrazolo[1,5-a][1,3,5]triazin-4-yl]-5,6,7,8-tetrahydroisoquinoline-1,6-diamine]
5 | < 500 | COCC[C@H](C)c1cnn2c(N[C@@H]3CCc4[nH]c5ccccc5c4C3)nc(-c3cncc(F)c3)nc12 [Compound I-65a, (3R)—N-[2-(5-Fluoro-3-pyridyl)-8-[(1S)-3-methoxy-1-methyl-propyl]pyrazolo[1,5-a][1,3,5]triazin-4-yl]-2,3,4,9-tetrahydro-1H-carbazol-3-amine]
6 | > 1500 | CC(C)c1cnn2c(N[C@@H]3CCc4c(cc[nH]c4=O)C3)nc(-c3cncc(F)c3)nc12 [Compound I-66a, (6R)-6-[[2-(5-Fluoro-3-pyridyl)-8-isopropyl-pyrazolo[1,5-a][1,3,5]triazin-4-yl]amino]-5,6,7,8-tetrahydro-2H-isoquinolin-1-one]
7 | > 1500 | CC(C)c1cnn2c(N[C@@H]3CCc4c(ccnc4N)C3)nc(-c3cncc(F)c3)nc12 [Compound I-63a, (6R)—N6-[2-(5-Fluoro-3-pyridyl)-8-isopropyl-pyrazolo[1,5-a][1,3,5]triazin-4-yl]-5,6,7,8-tetrahydroisoquinoline-1,6-diamine]

Continued, compound first:

Row | SMILES | IC50 [nM]
8 | CC(C)c1cnn2c(N[C@@H]3CCc4[nH]c5ccccc5c4C3)nc(-c3cncc(N(C)C)c3)nc12 [Compound I-5, (3R)—N-[2-[5-(Dimethylamino)-3-pyridyl]-8-isopropyl-pyrazolo[1,5-a][1,3,5]triazin-4-yl]-2,3,4,9-tetrahydro-1H-carbazol-3-amine] | > 1500
9 | CC(C)c1cnn2c(N[C@@H]3CCc4[nH]c5ccccc5c4C3)nc(C3CCOC3)nc12 (stereo partly drawn) [Compound I-17, (3R)—N-(8-isopropyl-2-tetrahydrofuran-3-yl-pyrazolo[1,5-a][1,3,5]triazin-4-yl)-2,3,4,9-tetrahydro-1H-carbazol-3-amine] | 500 to 1000
10 | Nc1cnn2c(N[C@@H]3CCc4[nH]c5ccccc5c4C3)nc(-c3cncc(F)c3)nc12 [Compound I-31, 2-(5-Fluoro-3-pyridyl)-N4-[(3R)-2,3,4,9-tetrahydro-1H-carbazol-3-yl]pyrazolo[1,5-a][1,3,5]triazine-4,8-diamine] | < 500
11 | CC(C)c1cnn2c(N[C@H]3CCc4ccccc4C3)nc(-c3cncc(F)c3)nc12 [Compound I-48b, 2-(5-Fluoro-3-pyridyl)-8-isopropyl-N-[(2S)-tetralin-2-yl]pyrazolo[1,5-a][1,3,5]triazin-4-amine] | > 1500
12 | NCc1cnn2c(N[C@@H]3CCc4[nH]c5ccccc5c4C3)nc(-c3cncc(F)c3)nc12 [Compound I-4, (3R)—N-[8-(Aminomethyl)-2-(5-fluoro-3-pyridyl)pyrazolo[1,5-a][1,3,5]triazin-4-yl]-2,3,4,9-tetrahydro-1H-carbazol-3-amine] | < 500
13 | CC(C)c1cnn2c(N[C@H]3CCc4[nH]c5ccccc5c4C3)nc(-c3cncc(F)c3)nc12 [Compound I-47, (3S)—N-[2-(5-Fluoro-3-pyridyl)-8-isopropyl-pyrazolo[1,5-a][1,3,5]triazin-4-yl]-2,3,4,9-tetrahydro-1H-carbazol-3-amine] | < 500
14 | Cc1ccnc2c(N[C@@H]3CCc4[nH]c5ccccc5c4C3)nc(-c3cncc(F)c3)nc12 [Compound I-22, (3R)—N-[2-(5-fluoro-3-pyridyl)-8-methyl-pyrido[3,2-d]pyrimidin-4-yl]-2,3,4,9-tetrahydro-1H-carbazol-3-amine] | < 500
15 | Fc1cncc(-c2nc(N[C@@H]3CCc4[nH]c5ccccc5c4C3)n3nc4c(c3n2)CNCC4)c1 [Compound I-50, 2-(5-Fluoro-3-pyridyl)-N-[(3R)-2,3,4,9-tetrahydro-1H-carbazol-3-yl]-7,8,9,10-tetrahydropyrido[2,3]pyrazolo[2,4-c][1,3,5]triazin-4-amine] | > 1500
16 | CC(C)c1cnn2c(N[C@@H]3CCc4[nH]c5ccccc5c4C3)nc([C@@H]3CCCOC3)nc12 [Compound I-15a, (3R)—N-(8-isopropyl-2-tetrahydropyran-3-yl-pyrazolo[1,5-a][1,3,5]triazin-4-yl)-2,3,4,9-tetrahydro-1H-carbazol-3-amine] | > 1500
17 | CC(C)c1cnn2c(NCCCCO)nc(-c3cncc(F)c3)nc12 [Compound I-39, 4-[[2-(5-Fluoro-3-pyridyl)-8-isopropyl-pyrazolo[1,5-a][1,3,5]triazin-4-yl]amino]butan-1-ol] | > 1500
18 | CC(CO)CCNc1nc(-c2cncc(F)c2)nc2c(C(C)C)cnn12 (centres unmarked) [Compound I-40, 4-[[2-(5-Fluoro-3-pyridyl)-8-isopropyl-pyrazolo[1,5-a][1,3,5]triazin-4-yl]amino]-2-methyl-butan-1-ol] | > 1500
19 | CNc1cnn2c(N[C@@H]3CCc4[nH]c5ccccc5c4C3)nc(-c3cncc(F)c3)nc12 [Compound I-51, 2-(5-Fluoro-3-pyridyl)-N8-methyl-N4-[(3R)-2,3,4,9-tetrahydro-1H-carbazol-3-yl]pyrazolo[1,5-a][1,3,5]triazine-4,8-diamine] | < 500
20 | CC(C)c1cnn2c(N[C@H]3CCc4[nH]c5cnccc5c4C3)nc(-c3cncc(F)c3)nc12 [Compound I-13b, (6S)—N-[2-(5-fluoro-3-pyridyl)-8-isopropyl-pyrazolo[1,5-a][1,3,5]triazin-4-yl]-6,7,8,9-tetrahydro-5H-pyrido[3,4-b]indol-6-amine] | > 1500
21 | CC(C)c1cnn2c(N[C@H]3CC[C@@H](O)CC3)nc(-c3cncc(F)c3)nc12 [Compound I-44b, 4-[[2-(5-Fluoro-3-pyridyl)-8-isopropyl-pyrazolo[1,5-a][1,3,5]triazin-4-yl]amino]cyclohexanol] | > 1500
22 | Fc1cc(-c2nc(N[C@@H]3CCc4[nH]c5ccccc5c4C3)n3nccc3n2)cnc1[C@H]1CCCN1 [Compound I-26b, (3R)—N-[2-[5-Fluoro-6-[(2R)-pyrrolidin-2-yl]-3-pyridyl]pyrazolo[1,5-a][1,3,5]triazin-4-yl]-2,3,4,9-tetrahydro-1H-carbazol-3-amine] | > 1500
23 | CC(C)c1cnn2c(N[C@H]3CCc4[nH]c5c(O)cccc5c4C3)nc(-c3cncc(F)c3)nc12 [Compound I-24b, (6S)-6-[[2-(5-fluoro-3-pyridyl)-8-isopropyl-pyrazolo[1,5-a][1,3,5]triazin-4-yl]amino]-6,7,8,9-tetrahydro-5H-carbazol-1-ol] | > 1500
